Source: ChEMBL document CHEMBL1201862, “PubChem BioAssay data set” (2004)
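Assay format: 96-well plates, 48-hour exposure. Abbreviation: GI50, concentration required for 50% inhibition of growth.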 Activity calls are given as the source filed them. Rule as the data show it: active = GI50 up to about 1.1 µM and inactive = higher.

Tests used:
Test in all cases: DTP human tumour cell line panel, 48 h
786-0 = system: 786-0
A549 = system: A549
ACHN = system: ACHN
CAKI-1 = system: CAKI-1
CCRF-CEM = system: CCRF-CEM
COLO 205 = system: COLO 205
DU-145 = system: DU-145
HCC 2998 = system: HCC 2998
HCT-116 = system: HCT-116
HCT-15 = system: HCT-15
HL-60 = system: HL-60
HOP-62 = system: HOP-62
HOP-92 = system: HOP-92
HT-29 = system: HT-29
Hs-578T = system: Hs-578T
IGROV-1 = system: IGROV-1
K562 = system: K562
KM12 = system: KM12
LOX IMVI = system: LOX IMVI
M14 = system: M14
MCF7 = system: MCF7
MDA-MB-231 = system: MDA-MB-231
MDA-MB-435 = system: MDA-MB-435
MDA-N = system: MDA-N
MOLT-4 = system: MOLT-4
Malme-3M = system: Malme-3M
NCI-H226 = system: NCI-H226
NCI-H23 = system: NCI-H23
NCI-H460 = system: NCI-H460
NCI-H522 = system: NCI-H522
NCI/ADR-RES = system: NCI/ADR-RES
OVCAR-3 = system: OVCAR-3
OVCAR-4 = system: OVCAR-4
OVCAR-5 = system: OVCAR-5
OVCAR-8 = system: OVCAR-8
PC-3 = system: PC-3
RPMI-8226 = system: RPMI-8226
RXF 393 = system: RXF 393
SF-268 = system: SF-268
SF-295 = system: SF-295
SF-539 = system: SF-539
SK-MEL-28 = system: SK-MEL-28
SK-MEL-2 = system: SK-MEL-2
SK-MEL-5 = system: SK-MEL-5
SK-OV-3 = system: SK-OV-3
SN12C = system: SN12C
SNB-19 = system: SNB-19
SNB-75 = system: SNB-75
SR = system: SR
SW-620 = system: SW-620
T47D = system: T47D
TK-10 = system: TK-10
U-251 = system: U-251
UACC-257 = system: UACC-257
UACC-62 = system: UACC-62
UO-31 = system: UO-31

Measured: GI50

Cc1cn(C2C=CC(COP(=O)(OCC3=CC(=O)c4ccccc4C3=O)N(C)CCCCCl)O2)c(=O)[nH]c1=O (stereo unspecified)
8.51 µM: HCT-15
active: HOP-92 0.074 µM | MOLT-4 0.15 µM | Malme-3M 0.363 µM | SK-MEL-5 0.813 µM | SR 0.0473 µM
inactive: 786-0 12.7 µM | A549 1.6 µM | ACHN 13.6 µM | CAKI-1 13.2 µM | CCRF-CEM 3.12 µM | COLO 205 3.23 µM | DU-145 1.57 µM | HCC 2998 1.24 µM | HCT-116 14 µM | HL-60 1.42 µM | HOP-62 11.7 µM | HT-29 12.7 µM | Hs-578T 3.9 µM | IGROV-1 10.6 µM | K562 5.81 µM | KM12 10.6 µM | LOX IMVI 2.38 µM | M14 1.18 µM | MCF7 6.98 µM | MDA-MB-231 12.6 µM | MDA-MB-435 1.94 µM | MDA-N 2.21 µM | NCI-H226 10.3 µM | NCI-H23 2.39 µM | NCI-H460 2.49 µM | NCI-H522 14.7 µM | NCI/ADR-RES 16.4 µM | OVCAR-3 3.5 µM | OVCAR-4 11.1 µM | OVCAR-5 12.1 µM | OVCAR-8 13.7 µM | PC-3 12.1 µM | RPMI-8226 5.05 µM | RXF 393 2.5 µM | SF-268 12.1 µM | SF-295 2.59 µM | SF-539 13.1 µM | SK-MEL-28 5.15 µM | SK-MEL-2 13.2 µM | SK-OV-3 11 µM | SN12C 11.6 µM | SNB-19 12 µM | SNB-75 1.55 µM | SW-620 5.13 µM | T47D 2.09 µM | TK-10 20.7 µM | U-251 5.38 µM | UACC-257 3.25 µM | UACC-62 3.75 µM | UO-31 12.8 µM
